As a reminder, the Cmax is the maximum level reached in the sampled fluid or tissue. One may read the IC50 as the concentration that gives 50% inhibition.

Where two headings read alike, the source gives them in different places.

For data set [1] the following is noted: mice, dose as high as 300 mg/kg/day; cited from earlier work.
The conditions of data set [2]: patients, state Cmax; cited from earlier work.
Data set [3] deals with SARS-CoV-2. Format: cell-based. Also on record: key: Cytotoxicity; ND: Both cytotoxicity and CPE are not detected.; SARS-CoV-2 induced CPE. As to conditions: Repeat 1 and 2.
Data set [4] has as its system SARS-CoV-2. Kind of data set: Live virus-based microneutralization (MN) assay, SARS-CoV-2-induced CPE in Vero E6 cells. The format is cell-based. Also noted: key to SARS-CoV-2 induced CPE in Vero E6 cells: Cytotoxicity; ND: Both cytotoxicity and CPE are not detected.; SARS-CoV-2 induced CPE. Conditions: for SARS-CoV-2 induced CPE in Vero E6 cells: Repeat 1 and 2.
The next data set addresses M^Pro (Severe acute respiratory syndrome coronavirus 2, UniProt P0DTD1). The format is biochemical.

On to `CC(C)COCC(CN(Cc1ccccc1)c1ccccc1)N1CCCC1` (stereo not drawn) [Bepridil], for which the “mating behavior and reproductive performance” value in data set [1] is “did not show alteration in mating behavior and reproductive performance”. The maximum concentration (Cmax) in data set [2] is 3.72 µM. In addition, the “SARS-CoV-2 induced CPE in ACE2-expressing A549 cells” value with SARS-CoV-2 [3] (bepridil 1.56 μM) and in the data set with SARS-CoV-2 [3] (bepridil 3.12 μM) was “CPE” in each case. The “SARS-CoV-2 induced CPE in Vero E6 cells” value is recorded as “CPE” in the data set on SARS-CoV-2 [4] (bepridil 0.16 μM); “CPE” with SARS-CoV-2 [4] (bepridil 0.31 μM); “CPE” with SARS-CoV-2 [4] (bepridil 0.62 μM); “CPE” with SARS-CoV-2 [4] (bepridil 1.25 μM); “CPE” in the data set with SARS-CoV-2 [4] (bepridil 2.5 μM); “C” with SARS-CoV-2 [4] (bepridil 50 μM). In addition, the “SARS-CoV-2 induced CPE in Vero E6 cells” value was “C” in the data set on SARS-CoV-2 [4] (bepridil 100 μM); “C^a and C” in the data set with SARS-CoV-2 [4] (bepridil 200 μM).
On to `CC(C)(C)c1ccc(C(=O)CCCN2CCC(OC(c3ccccc3)c3ccccc3)CC2)cc1` [Ebastine], for which the “Cytopathogenic effect (CPE)” value with SARS-CoV-2 [4] is “observed”.
In the case of `Cc1cccc(C)c1OCC(=O)N[C@@H](Cc1ccccc1)[C@@H](O)C[C@H](Cc1ccccc1)NC(=O)[C@H](C(C)C)N1CCCNC1=O` [Lopinavir], the IC50 against M^Pro (50 nM M^Pro, 10 μM Sub3, mean ± SE, triplicate) came out at 486 ± 2 µM. Moreover, the “Hill Slope” value was 29.9 ± 2.4 at M^Pro (Hill coefficient of IC50 curve, four-parameter fit) and “lowest Hill coefficients” on M^Pro (Hill coefficient of IC50 curve, four-parameter fit, listed as lopinavir).
On to `O=c1[nH]c2ccccc2n1C1CCN(CCCC(c2ccc(F)cc2)c2ccc(F)cc2)CC1` [Pimozide], for which, in the data set with SARS-CoV-2 [4] (Vero E6 cells, all tested concentrations, 0.16 to 200 μM), the “Cytopathogenic effect (CPE)” value is reported as “observed”.
For the molecule `CCOC(=O)/C=C/[C@H](C[C@@H]1CCNC1=O)NC(=O)[C@@H](CC(=O)[C@@H](NC(=O)c1cc(C)on1)C(C)C)Cc1ccc(F)cc1` [Rupintrivir], the “Hill Slope” value on M^Pro stood at 1.4 ± 0.2.
